For this experiment, the system named is IFN-a/Jak1Tyk2. In words: Co-stimulation assay in lysed whole blood: IFNa (JAK1/TYK2) stimulated STAT1 phosphorylation. The conditions noted are these: lysed human whole blood, IFNa 100 ng/mL (co-stimulated with GM-CSF 10 ng/mL), pSTAT1 by flow cytometry. It counts as cell-based. How it is done:
Example 4: Co-Stimulation Assay in Lysed Whole Blood; JAK2: GM-CSF Stimulated STATS Phosphorylation and JAK1/TYK2 Stimulated STAT1 Phosphorylation Assay
Human Blood Lysis Using Abcam's RBC Lysis Buffer
Dilute RBC lysis buffer to 1× in distilled water. Add 2 mL blood to 38 mL of 1×RBC-lysis buffer. Incubate for 15 mins at RT, in dark. Spin at 300 g, 5 mins, to collect the pellet. Re-lyse if necessary. Re-suspend pellet in 5 mL of cRPMI.
Compound and Cytokine Treatment
Aliquot 80 μL of lysed human blood in to wells of 96 deep-well plate. Add 10 μl of (10× conc.) of different concentrations of compounds to all wells except controls (unstained and unstimulated) and mix it with the help of 100 uL multichannel. Add 10 uL of RPMI media in controls. For dilution of compounds and dilution range please refer Appendix. Incubate on water bath or CO2 incubator for 1 hour at 37° C. Add 10 μL of (10× conc.) of cytokine mix (GM-CSF and IFNa) (final conc. 10 ng/mL of GM-CSF and 100 ng/mL of IFNa) to each well except unstimulated and unstained controls and incubate further for 20 minutes on water bath at 37° C.
Add 900 μL of prewarmed 1× Fix/Lyse solution (Appendix) and mix it properly using 1000 μl multichannel, incubate further on water bath at 37° C. for 10 minutes (which includes time of addition). Centrifuge at 800× g for 5 minutes at 40° C.; remove 900 uL of supernatant and add 900 μL of 1×PBS. Centrifuge at 800× g for 5 minutes at 40° C., remove 900 μL of supernatant. Wash one more time with 900 μL of PBS (optional) and resuspend pellets in 100 uL of PBS.
Disrupt the pellet by gentle tapping and resuspend in 1000 μL of BD Phosflow Perm Buffer III and incubate plate on ice for 30 minutes. Centrifuge plate at 800× g for 5 minutes at 40° C. Wash two more times with 1000 μL of BD Pharmingen Stain Buffer.
Disrupt the pellet by gentle tapping. Resuspend pellets in 100 uL of Stain Buffer and add 5 μL of pSTAT5_AF488 Ab and 5 uL of pSTAT1_PE in all wells except unstained control and mix properly using 200 μl multichannel, incubate overnight at […]. Add 900 μL of wash buffer and centrifuge at 1800 rpm for 3 minutes at […]. Wash one more time with 1000 μL of BD Pharmingen Stain Buffer. Finally resuspend the pellet in 300 uL of BD Pharmingen Stain Buffer. Transfer the cells to 96-well v-bottom plate and acquire the cells in Beckman Coulter CytExpert. Acquiring cells in Flow Cytometer: Keep the threshold value to 250 and cell concentration should not exceed 100-500 cells/μL. Acquire at least 5,000-10,000 cells.
RPMI 1640 Complete Medium: RPMI 1640 media+10% FBS.
Cytokine dilution: 1) GM-CSF Stock at 100 ug/mL. Prepare an intermediate dilution of 1 ug/mL by adding 2 uL of stock into 198 uL of cRPMI. Further dilute to 100 ng/mL by adding 100 uL of the intermediate stock to 900 uL of cRPMI. 2) IFNa Stock at 200 ug/mL. Dilute IFNa stock 1:200 by adding 5 uL of stock into the 1000 uL of 100 ng/mL GM-CSF working stock as above to give a combined working stock of 1000 ng/mL of IFNa and 100 ng/mL GM-CSF (lox). Keep it on ice until used.
Lyse/Fix buffer preparation: Dilute 5× Lyse/Fix buffer to 1× using MQ water and keep at 37° C. until used.
BD Phosflow perm buffer III: Keep on ice/fridge.

The text below walks through data of patent publication US11780842B2, “TYK2 pseudokinase ligands” (Ventyx Biosciences, Inc., priority 2019, dated 2023).

Structures are written as SMILES. A value given as a limit tells only on which side of the number the result lay.

Regarding `[2H]C([2H])([2H])Nc1cc2nc3c(cnn13)C(=O)NCCCc1cccc(c1)N2` [Compound 24, (1^3E,1^4E)-1^7-((methyl-d3)amino)-2,7-diaza-1(5,3)-pyrazolo[1,5-a]pyrimidina-3(1,3)-benzenacyclooctaphan-8-one], the IC50 – broadly, the concentration needed to halve the response being measured – was in the range of 100 to 1000 nM.
To `CNc1cc2nc3c(cnn13)C(=O)NCCOc1cccc(n1)N2` [Compound 17, (1^3E,1^4E)-1^7-(methylamino)-4-oxa-2,7-diaza-1(5,3)-pyrazolo[1,5-a]pyrimidina-3(2,6)-pyridinacyclooctaphan-8-one] belongs ≤ 500 nM; to `[2H]C1([2H])NC(=O)c2cnn3c(NC)cc(nc23)Nc2cccc(c2)OC1([2H])[2H]` [Compound 15, (1^3E,1^4E)-1^7-(methylamino)-4-oxa-2,7-diaza-1(5,3)-pyrazolo[1,5-a]pyrimidina-3(1,3)-benzenacyclooctaphn-8-one-5,5,6,6-d4], ≤ 500 nM; to `CNc1cc2nc3c(cnn13)C(=O)NCCCc1cc(O)cc(c1)N2` [Compound 38, (1^3E,1^4E)-3^5-hydroxy-1^7-(methylamino)-2,7-diaza-1(5,3)-pyrazolo[1,5-a]pyrimidina-3(1,3)-benzenacyclooctaphan-8-one], 1000 to 10000 nM.
To `CNc1cc2nc3c(cnn13)C(=O)NCCCCOc1cccc(c1)N2` [Compound 35, (1^3E,1^4E)-1^7-(methylamino)-4-oxa-2,9-diaza-1(5,3)-pyrazolo[1,5-a]pyrimidina-3(1,3)-benzenacyclodecaphan-10-one] belongs 100 to 1000 nM.
With `CNc1cc2nc3c(cnn13)C(=O)NCCc1cccc(n1)N2` [Compound 42, (1^3E,1^4E)-1^7-(methylamino)-2,6-diaza-1(5,3)-pyrazolo[1,5-a]pyrimidina-3(2,6)-pyridinacycloheptaphan-7-one], the IC50 was in the range of 1000 to 10000 nM.
Next, `CNc1cc2nc3c(cnn13)C(=O)NCCOc1cccc(c1)N2` [Compound 7, (1^3E,1^4E)-1^7-(methylamino)-4-oxa-2,7-diaza-1(5,3)-pyrazolo[1,5-a]pyrimidina-3(1,3)-benzenacyclooctaphan-8-one]: ≤ 500 nM; `CNc1cc2nc3c(cnn13)C(=O)NC(C)COc1cccc(c1)N2` (stereo not drawn) [Compound 25, (1^3E,1^4E)-6-methyl-1^7-(methylamino)-4-oxa-2,7-diaza-1(5,3)-pyrazolo[1,5-a]pyrimidina-3(1,3)-benzenacyclooctaphan-8-one]: 100 to 1000 nM.
Next, `CNc1cc2nc3c(cnn13)C(=O)NCCCc1csc(n1)N2` [Compound 43, (1^2Z,3^3E,3^4E)-3^7-(methylamino)-2,5-diaza-1(2,4)-thiazola-3(5,3)-pyrazolo[1,5-a]pyrimidinacyclooctaphan-4-one]: 1000 to 10000 nM; `CNc1cc2nc3c(cnn13)C(=O)NCCCc1cccc(c1)N2` [Compound 18, (1^3E,1^4E)-1^7-(methylamino)-2,7-diaza-1(5,3)-pyrazolo[1,5-a]pyrimidina-3(1,3)-benzenacyclooctaphan-8-one]: 100 to 1000 nM; `CNc1cc2nc3c(cnn13)C(=O)NCCCn1cc(cn1)N2` [Compound 45, (1^3E,1^4E,3^4E)-1^7-(methylamino)-31H-2,7-diaza-1(5,3)-pyrazolo[1,5-a]pyrimidina-3(4,1)-pyrazolacyclooctaphan-8-one]: 1000 to 10000 nM.
Turning to `[2H]C([2H])([2H])Nc1cc2nc3c(cnn13)C(=O)NCCOc1cccc(c1)N2` [Compound 14, (1^3E,1^4E)-1^7-((methyl-d3)amino)-4-oxa-2,7-diaza-1(5,3)-pyrazolo[1,5-a]pyrimidina-3(1,3)-benzenacyclooctaphan-8-one], the IC50 was ≤ 500 nM.
